Broadly, the melting point is the temperature of the solid-liquid transition.

The results in this text go back to patent US6514971B1, “Cinnoline derivatives and use as medicine” (Zeneca Limited, priority 1996, dated 2003).

Counter-ions that a name gives are not always drawn.

The target of data set [1] is T1, epidermal growth factor (EGF) receptor tyrosine kinase (Homo sapiens, UniProt P00533).
T1 construct: made in house; host or cells: insect cells (baculovirus, as for Flt)
Description: In vitro receptor tyrosine kinase inhibition test (EGF receptor). The data set is classed as biochemical. An excerpt:
(§1) (a) In Vitro Receptor Tyrosine Kinase Inhibition Test
This assay determines the ability of a test compound to inhibit tyrosine kinase activity. DNA encoding VEGF or epidermal growth factor (EGF) receptor cytoplasmic domains may be obtained by total gene synthesis (Edwards M, International Biotechnology Lab 5(3), 19-25, 1987) or by cloning. These may then be expressed in a suitable expression system to obtain polypeptide with tyrosine kinase activity. […] In the case of the VEGF receptor Flt (Genbank accession number X51602), a 1.7 kb DNA fragment encoding most of the cytoplasmic domain, commencing with methionine 783 and including the termination codon, described by Shibuya et al (Oncogene, 1990, 5: 519-524), was isolated from cDNA and cloned into a baculovirus transplacement vector (for example pAcYM1 (see The Baculovirus Expression System: A Laboratory Guide, L. A. King and R. D. Possee, Chapman and Hall, 1992) or pAc360 or pBlueBacHis (available from Invitrogen Corporation)). This recombinant construct was co-transfected into insect cells (for example Spodoptera frugiperda 21 (Sf21)) with viral DNA (eg Pharmingen BaculoGold) to prepare recombinant baculovirus. (Details of the methods for the assembly of recombinant DNA molecules and the preparation and use of recombinant baculovirus can be found in standard texts for example Sambrook et al, 1989. Molecular cloning—A Laboratory Manual, 2nd edition, Cold Spring Harbour Laboratory Press and O'Reilly et al, 1992, Baculovirus Expression Vectors—A Laboratory Manual. W. H. Freeman and Co. New York). For other tyrosine kinases for use in assays, cytoplasmic fragments starting from methionine 806 (KDR, Genbank accession number L04947) and methionine 668 (EGF receptor, Genbank accession number X00588) may be cloned and expressed in a similar manner.
For expression of cFlt tyrosine kinase activity, Sf21 cells were infected with plaque-pure cFlt recombinant virus at a multiplicity of infection of 3 and harvested 48 hours later. Harvested cells were washed with ice cold phosphate buffered saline solution (PBS) (10 mM sodium phosphate pH7.4, 138 mM NaCl, 2.7 mM KCl) then resuspended in ice cold HNTG/PMSF (20 mM Hepes pH7.5, 150 mM NaCl, 10% v/v glycerol, 1% v/v Triton X100. 1.5 mM MgCl2, 1 mM ethylene glycol-bis(βaminoethyl ether) N,N,N′,N′-tetraacetic acid (EGTA), 1 mM PMSF (phenylmethylsulphonyl fluoride); the PMSF is added just before use from a freshly-prepared 100 mM solution in methanol) using 1 ml HNTG/PMSF per 10 million cells. The suspension was centrifuged for 10 minutes at 13.000 rpm at 4° C., the supernatant (enzyme stock) was removed and stored in aliquots at −70° C. Each new batch of stock enzyme was titrated in the assay by dilution with enzyme diluent (100 mM Hepes pH 7.4, 0.2 mM Na3VO4, 0.1% v/v Triton X100, 0.2 mM dithiothreitol). For a typical batch, stock enzyme is diluted 1 in 2000 with enzyme diluent and 50 μl of dilute enzyme is used for each assay well.
(§2) A stock of substrate solution was prepared from a random copolymer containing tyrosine, for example Poly (Glu, Ala, Tyr) 6:3:1 (Sigma P3899), stored as 1 mg/ml stock in PBS at −20° C. and diluted 1 in 500 with PBS for plate coating.
(§3) On the day before the assay 100 μl of diluted substrate solution was dispensed into all wells of assay plates (Nunc maxisorp 96-well immunoplates) which were sealed and left overnight at 4° C.
(§4) On the day of the assay the substrate solution was discarded and the assay plate wells were washed once with PBST (PBS containing 0.05% v/v Tween 20) and once with 50 mM Hepes pH7.4.
Test compounds were diluted with 10% dimethylsulphoxide (DMSO) and 25 μl of diluted compound was transferred to wells in the washed assay plates. “Total” control wells contained 10% DMSO instead of compound. Twenty five microliters of 40 mM MnCl2 containing 8 μM adenosine-5′-triphosphate (ATP) was added to all test wells except “blank” control wells which contained MnCl2 without ATP. […]

Data set [2] has as its target T2, VEGF receptor tyrosine kinase (Homo sapiens, UniProt P17948).
T2 construct: encoding most of the cytoplasmic domain, commencing with methionine 783 and including the termination codon; made in house; host or cells: Spodoptera frugiperda Sf21 insect cells (baculovirus); cleared Triton X100 lysate used as enzyme stock
T2 sequence (P17948 781-1338 limits assumed): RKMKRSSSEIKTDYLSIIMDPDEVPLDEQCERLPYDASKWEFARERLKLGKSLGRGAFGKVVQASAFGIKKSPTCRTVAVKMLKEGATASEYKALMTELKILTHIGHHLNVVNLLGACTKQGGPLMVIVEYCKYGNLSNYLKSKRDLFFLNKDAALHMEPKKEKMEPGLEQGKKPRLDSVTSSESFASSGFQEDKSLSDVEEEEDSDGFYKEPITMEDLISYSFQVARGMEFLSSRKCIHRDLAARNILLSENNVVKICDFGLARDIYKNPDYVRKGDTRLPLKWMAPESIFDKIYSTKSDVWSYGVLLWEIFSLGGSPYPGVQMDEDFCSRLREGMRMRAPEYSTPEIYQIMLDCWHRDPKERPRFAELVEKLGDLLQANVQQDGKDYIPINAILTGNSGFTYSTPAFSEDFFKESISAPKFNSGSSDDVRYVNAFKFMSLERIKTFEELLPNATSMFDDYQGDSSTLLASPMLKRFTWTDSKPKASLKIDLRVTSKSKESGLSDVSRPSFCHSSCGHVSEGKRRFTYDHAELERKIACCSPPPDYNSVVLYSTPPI
In words: In vitro receptor tyrosine kinase inhibition test (VEGF receptor). The data set is classed as biochemical.
Source text: as §1
This assay determines the ability of a test compound to inhibit tyrosine kinase activity. […] These may then be expressed in a suitable expression system to obtain polypeptide with tyrosine kinase activity. […] This recombinant construct was co-transfected into insect cells (for example Spodoptera frugiperda 21 (Sf21)) with viral DNA (eg Pharmingen BaculoGold) to prepare recombinant baculovirus.
For expression of cFlt tyrosine kinase activity, Sf21 cells were infected with plaque-pure cFlt recombinant virus at a multiplicity of infection of 3 and harvested 48 hours later. […] The suspension was centrifuged for 10 minutes at 13.000 rpm at 4° C., the supernatant (enzyme stock) was removed and stored in aliquots at −70° C. Each new batch of stock enzyme was titrated in the assay by dilution with enzyme diluent (100 mM Hepes pH 7.4, 0.2 mM Na3VO4, 0.1% v/v Triton X100, 0.2 mM dithiothreitol). For a typical batch, stock enzyme is diluted 1 in 2000 with enzyme diluent and 50 μl of dilute enzyme is used for each assay well.
as §2, §3, §4
Test compounds were diluted with 10% dimethylsulphoxide (DMSO) and 25 μl of diluted compound was transferred to wells in the washed assay plates. “Total” control wells contained 10% DMSO instead of compound. Twenty five microliters of 40 mM MnCl2 containing 8 μM adenosine-5′-triphosphate (ATP) was added to all test wells except “blank” control wells which contained MnCl2 without ATP. To start the reactions 50 μl of freshly diluted enzyme was added to each well and the plates were incubated at room temperature for 20 minutes. The liquid was then discarded and the wells were washed twice with PBST. […] Plates were then incubated for 20-60 minutes at room temperature until the optical density value of the “total” control wells, measured at 405 nm using a plate reading spectrophotometer, was approximately 1.0.

T1 sequence (P00533 669-1210 limits assumed): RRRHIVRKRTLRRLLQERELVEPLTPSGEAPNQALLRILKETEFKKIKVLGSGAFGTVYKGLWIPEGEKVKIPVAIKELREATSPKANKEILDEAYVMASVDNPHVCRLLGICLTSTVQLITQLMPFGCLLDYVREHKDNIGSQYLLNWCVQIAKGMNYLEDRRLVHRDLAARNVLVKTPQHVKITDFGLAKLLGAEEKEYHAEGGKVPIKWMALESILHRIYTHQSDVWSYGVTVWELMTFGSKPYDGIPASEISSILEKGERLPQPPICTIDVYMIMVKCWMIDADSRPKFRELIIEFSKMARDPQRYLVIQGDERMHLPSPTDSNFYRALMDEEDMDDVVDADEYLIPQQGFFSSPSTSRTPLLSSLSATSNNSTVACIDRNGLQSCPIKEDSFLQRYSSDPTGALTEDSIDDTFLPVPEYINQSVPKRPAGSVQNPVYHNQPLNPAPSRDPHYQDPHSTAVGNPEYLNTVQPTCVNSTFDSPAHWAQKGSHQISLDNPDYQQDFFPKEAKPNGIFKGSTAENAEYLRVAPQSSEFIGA

Turning to `COc1cc2nncc(Nc3cc(O)c(Cl)cc3F)c2cc1OC` (as salt: hydrochloride) [Example 22, 4-(4-chloro-2-fluoro-5-hydroxyanilino)-6,7-dimethoxycinnoline], the melting point was in the range of 255 to 256 °C.
Same read-out and setting: the result for `COc1cc2c(Nc3cc(OC(C)=O)c(Cl)cc3F)cnnc2cc1OCc1ccccc1` (as salt: hydrochloride) [Example 7, 4-(5-acetoxy-4-chloro-2-fluoroanilino)-7-benzyloxy-6-methoxycinnoline] reads 240 to 247 °C.
On the same count and under the same terms, the same measure for `COc1cc2c(Nc3cc(O)c(Cl)cc3F)cnnc2cc1OCCCN1CCOCC1` (as salt: hydrochloride) [Example 12, 4-(4-chloro-2-fluoro-5-hydroxyanilino)-6-methoxy-7-(3-morpholinopropoxy)cinnoline]: 218 to 225 °C; for `COc1cc2nncc(Nc3ccc(C)c(O)c3)c2cc1OC` [Example 1, 4-(3-hydroxy-4-methylanilino)-6,7-dimethoxycinnoline]: 240 to 244 °C.
Turning to `COc1cc2c(Nc3cc(O)c(C)cc3F)cnnc2cc1OCCCN1CCOCC1` [Example 15, 4-(2-fluoro-5-hydroxy-4-methylanilino)-6-metboxy-7-(3-morpholinopropoxy)cinnoline], the “activity against epidermal growth factor (EGF) receptor tyrosine kinase” value (from here on “activity against epidermal growth factor”) in data set [1] is on record as “lack of significant activity”. Also, in data set [2], the “activity against VEGF receptor tyrosine kinase” value was “good activity”.
The molecule `COc1cc2c(Nc3cc(O)c(Cl)cc3F)cnnc2cc1OCCCN1CCCC1` (as salt: hydrochloride) [Example 13, 4-(4-chloro-2-fluoro-5-hydroxyanilino)-6-methoxy-7-(3-pyrrolidinopropoxy)cinnoline] showed a melting point of 240 to 245 °C.
Turning to `COc1cc2c(Nc3cc(O)c(C)cc3F)cnnc2cc1OCc1ccncc1.Cl`, the melting point is 244 to 252 °C.
With `COc1cc2c(Nc3cc(O)c(C)cc3F)cnnc2cc1OCc1csc(C)n1` [4-(2-fluoro-5-hydroxy-4-methylanilino)-6-methoxy-7-[(2-methylthiazol-4-yl)methoxy]cinnoline], the “activity against epidermal growth factor” value in data set [1] is reported as “lack of significant activity”. In data set [2], the “activity against VEGF receptor tyrosine kinase” value is “good activity”.
Consider `COc1cc2nncc(Nc3cc(O)c(C)cc3F)c2cc1OC` (as salt: hydrochloride) [Example 21, 4-(2-fluoro-5-hydroxy-4-methylanilino)-6,7-dimethoxycinnoline], for which the melting point is 251 to 253 °C.
Take `COCCOc1cc2nncc(Nc3cc(O)c(Br)cc3F)c2cc1OC` [Example 9, 4-(4-bromo-2-fluoro-5-hydroxyanihno)-6-methoxy-7-(2-methoxyethoxy)cinnoline]: the “activity against epidermal growth factor” value in data set [1] is on record as “lack of significant activity”. In data set [2], the “activity against VEGF receptor tyrosine kinase” value is listed as “good activity”.
Take `COc1cc2c(Nc3cc(O)c(Cl)cc3F)cnnc2cc1OCc1ccccc1` (as salt: hydrochloride) [Example 6, 7-benzyloxy-4-(4-chloro-2-fluoro-5-hydroxyanilino)-6-methoxycinnoline]: the melting point is 280 to 284 °C.
Still for that read-out and setting: the result for `COCCOc1cc2nncc(Oc3cc(O)c(C)cc3F)c2cc1OC` [Example 20, 4-(2-fluoro-5-hydroxy-4-methylphenoxy)-6-methoxy-7-(2-methoxyethoxy)cinnoline] reads 267 to 273 °C; that for `COCCOCCOc1cc2nncc(Nc3cc(O)c(C)cc3F)c2cc1OC` (as salt: hydrochloride) [Example 23, 4-(2-fluoro-5-hydroxy-4-methylanilino)-6-methoxy-7-[2-(2-methoxyethoxy)ethoxy]cinnoline], 250 to 256 °C; that for `COc1cc2c(Nc3cc(O)c(Cl)cc3F)cnnc2cc1OCc1ccncc1` (as salt: hydrochloride) [Example 10, 4-(4-chloro-2-fluoro-5-hydroxyanilino)-6-methoxy-7-(4-pyridylmethoxy)cinnoline], 243 to 251 °C.
Consider `COc1cc2c(Nc3cc(O)c(C)cc3F)cnnc2cc1OCc1nccn1C` [4-(2-fluoro-5-hydroxy-4-methylanilino)-6-methoxy-7-[(1-methylimidazol-2-yl)methoxy]cinnoline], for which, in data set [1], the “activity against epidermal growth factor” value is reported as “lack of significant activity”. For the same molecule, in data set [2], the “activity against VEGF receptor tyrosine kinase” value was “good activity”.
Turning to `COCCOc1cc2nncc(Nc3ccc(Br)cc3F)c2cc1OC` (as salt: hydrochloride) [Example 5, 4-(4-bromo-2-fluoroanilino)-6-methoxy-7-(2-methoxyethoxy)cinnoline], the melting point fell in the range of 278 to 281 °C.
Same read-out and setting: the same measure for `COc1cc2c(Nc3cc(O)c(C)cc3F)cnnc2cc1OCc1nccn1C.Cl`: 215 to 221 °C.
On the same count and under the same terms, the same measure for `COc1ccc2c(Nc3ccc(C)c(O)c3)cnnc2c1` (as salt: hydrochloride) [Example 14, 4-(3-hydroxy-4-methylanilino)-7-methoxycinnoline]: 270 to 275 °C; for `COCCOc1cc2nncc(Nc3cc(O)c(C)cc3F)c2cc1OC` (as salt: hydrochloride) [Example 11, 4-(2-fluoro-5-hydroxy-4-methylanilino)-6-methoxy-7-(2-methoxyethoxy)cinnoline]: 283 to 290 °C.
